The nature of series [1]: Chemical hydrolysis in phosphate buffer saline (PBS, pH 7.3). The series is classed as physicochemical. The settings on record: PBS pH 7.3, 37 °C, read-out: PBS pH 7.3 t 1/2 (converted). The procedure:
(§1) Part 4. Chemical Hydrolysis of TriPPPro-compounds 10 and 20.
Second prepare 1.9 mM hydrolysis […]
(§2) Then, aliquots of 50 µL human

A short description of series [2]: in vitro. To be noted: human. As for the experimental part: The hydrolysis properties of TriPPPro‐compounds 10 and 20 were evaluated in phosphate buffer saline (PBS, pH 7.3), pig liver esterase (PLE) or CEM/0 cell extracts. In both cases, hydrolysis products were analyzed by means of analytical RP18‐HPLC and the hydrolysis half‐lives (Table 1 , t1/2 ) of TriPPPro‐compounds 10 and 20 were calculated after complete consumption of the starting materials.
The hydrolysis of TriPPPro‐compounds 10 and 20 was carried out with CEM/0 cell extracts as well. […]
Part 6. Enzyme-Catalyzed Hydrolysis of TriPPPro-compounds 10 and 20 in CEM Cell […]
First prepare 3.0 mM hydrolysis solutions of Tri PPPro-compounds 10 and 20 in DMSO and H2O: 21 µL stock solution (50 mM in DMSO) and 154 µL DMSO, and 175 µL Milli-Q water. Three-twelve different samples (20 µL 3.0 mM hydrolysis solutions) were prepared in 2 mL Eppendorf® vials. Then, aliquots of 50 µL human CEM cell extracts were added to these samples and the reaction was started. The samples were incubated at 37 °C in a thermomixer for different time periods. The reaction was stopped by addition of 150 µL MeOH and kept on ice for 5 min. After centrifugation at 14,000 rpm for 12 min, the supernatants were filtered (Chromafil RC-20/15 MS, 0.2 μm) and stored in liquid nitrogen. When testing, aliquots of 60 µL (injection volume) were analyzed by analytical HPLC (HPLC Method). The calculation of t1/2 was obtained using Origin again.
(§3) Part 7. Hydrolysis of TriPPPro-compounds 10 and 20 in human plasma.
µL 3.0 mM hydrolysis solutions) were prepared in 2 mL Eppendorf® vials.

The next series concerns pig liver esterase (PLE). Briefly: Hydrolysis with pig liver esterase (PLE). Type of series: in vitro ADME. The settings on record: pig liver esterase (PLE) in PBS, PLE in PBS pH 7.3, 37 °C, read-out: PLE t 1/2 (converted).
Text: Next, TriPPPro‐compounds 10 and 20 were exposed to PLE in PBS (pH 7.3) and the half‐lives of TriPPPro‐compounds 10 and 20 are listed in Table 1. […] In contrast, the cleavage of the AB (C4) masking group in TriPPPro‐compounds 10by–hy and 10bz–hz was triggered by ester hydrolysis and yielded the corresponding γ‐alkylated nucleoside triphosphate derivatives 20 (Figure 3B,D) and 21 (Figures S17 and S18, Supporting Information), respectively. […] Moreover, a very small amount of NDPs was observed, probably due to a reaction involving a nucleophilic reaction at the γ‐phosphate or γ‐phosphonate moiety (pathways d and f, Scheme 5). […]
as §1
Second prepare 1.9 mM hydrolysis
Part 5. Hydrolysis of TriPPPro-compounds 10 and 20 with PLE .
Second, 125 µL DMSO and 833 µL
62.5 µL of PLE solution in PBS (100
mixture was stored in the freezer (- 30 °C).
by analytical HPLC (HPLC Method).
similar to that for the chemical hydrolysis studies. […]
as §2

Series [3] is described as follows: in vitro. The settings on record: human, CEM/0 cells (wild-type CD4+ T-cells). The procedure:
All TriPPPro‐compounds 10 and 20, as well as their parent nucleosides and the corresponding NTPs, were evaluated for their antiviral activity (expressed as EC50 values) against HIV‐1 (wild‐type CEM/0 cells) and HIV‐2 (wild‐type CEM/0 cells and thymidine kinase‐deficient (CEM/TK^−) cells) with concomitant determination of cytotoxicity in the same cell line (Table 3 ).

The test system of a further series is HIV‐2 [ROD)]. Nature of the series: Anti-HIV activity, HIV-2 in thymidine kinase-deficient CEM/TK^− cells. The series is classed as cell-based. To be noted: Human immunodeficiency virus 2, CEM-TK(-), thymidine kinase-deficient CEM/TK^− cells, mean ±SD n = 2–3; read-out: Antiviral activity CEM/TK^− HIV‐2 [ROD)] EC50. The procedure:
(§4) Part 9. Anti-HIV activity assay.
(§5) The produce was used as previously reported. 5 Inhibition of HIV-1(IIIB)- and HIV-2(ROD)-induced cytopathogenicity in wild-type CEM/0 and thymidine kinase-deficient CEM/TK– cell cultures was measured in […]
(§6) containing appropriate dilutions of the test compounds. After 4−5 days of incubation at 37 °C in a CO2-controlled humidified atmosphere, CEM giant (syncytium) cell formation was examined microscopically. The […]
(§7) giant cell formation by 50%.
(§8) Part 10. Primer-extension assays. […]

The subject of a further series is HIV‐2 [ROD]. Nature of the series: Anti-HIV activity, HIV-2 in wild-type CEM/0 cells. The series is classed as cell-based. The settings on record: Human immunodeficiency virus 2, CCRF-CEM; wild-type CEM/0 cells, mean ±SD n = 2–3; read-out: Antiviral activity CEM/0 HIV‐2 [ROD] EC50. As for the experimental part: as §4, §5, §6, §7, §8
A further series deals with HIV‐1 [HE]. Nature of the series: Anti-HIV activity, HIV-1 in wild-type CEM/0 cells. Type of series: cell-based. The settings on record: Human immunodeficiency virus 1, CCRF-CEM; wild-type CEM/0 cells, mean ±SD n = 2–3; read-out: Antiviral activity CEM/0 HIV‐1 [HE] EC50.
Series [4] in a line: in vitro. To be noted: for half-life at 0.86 mM: human, plasma. The procedure: First prepare 50 mM solutions of TriPPPro-compounds 10 and 20 in DMSO. […]
First prepare 3.0 mM hydrolysis solutions of Tri PPPro-compounds 10 and 20 in DMSO and H2O: 21 µL stock solution (50 mM in DMSO) and 154 µL DMSO, and 175 µL Milli-Q water. Three-twelve different samples (20 […]
The calculation of t1/2 was obtained using Origin again.
as §3
µL 3.0 mM hydrolysis solutions) were prepared in 2 mL Eppendorf® vials. Then, aliquots of 50 µL human Plasma (Heparin or Citrate) were added to these samples and the reaction was started. The samples were […]
incubated at 37 °C in a thermomixer for different time periods. The reaction was stopped by addition of 150 µL MeOH and kept on ice for 5 min. After centrifugation at 14,000 rpm for 22 min, the supernatants were filtered (Chromafil RC-20/15 MS, 0.2 μm) and stored in liquid nitrogen. When testing, aliquots of 25 0r 30 µL (injection volume) were analyzed by analytical HPLC (HPLC Method). The calculation of t1/2 was obtained using Origin […]
Part 8. Preparation of cell extracts and human plasma. […]

Here are results for seven molecules from article PMC10754118, “Lipophilic Nucleoside Triphosphate Prodrugs of Anti‐HIV Active Nucleoside Analogs as Potential Antiviral Compounds” (Advanced Science, 2023).

As usually defined, the CC50 is the concentration giving 50% cytotoxicity. A high value points to lower toxicity to the cells. For `CCCCCCCCCCCCCCCCCCOP(=O)(O)OP(=O)(O)OP(=O)(O)OC[C@H]1O[C@@H](n2cc(C)c(=O)[nH]c2=O)C[C@@H]1F` [20f, γ‐C18‐FLTTP], in series [1], the half-life at 1.9 mM is more than 2000 h. Moreover, the half-life at 0.86 mM in the series “in vitro [2]” is more than 20 h. Further, the half-life at 0.45 mM with pig liver esterase (PLE) is more than 150 h. This molecule also came in with a CC50 in the series “in vitro [3]” of more than 100 µM. Moreover, the EC50 in the series with HIV‐2 [ROD)] was 1.27 ± 0.54 µM; in the series on HIV‐2 [ROD] it was 0.01 ± 0.001 µM; in the series with HIV‐1 [HE], 0.019 ± 0.019 µM.

As to `Cc1cn([C@H]2C[C@H](N=[N+]=[N-])[C@@H](COP(=O)(O)OP(=O)(O)O)O2)c(=O)[nH]c1=O` [AZTDP, reference compound], the half-life at 0.86 mM is 6.4 h in the series “in vitro [4]” (Plasma (Citrate) t 1/2); 2.8 h in the series “in vitro [4]” (Plasma (Heparin) t 1/2); 2.8 to 6.4 h in the series “in vitro [4]” (t 1/2 in human plasma (over heparin and citrate plasma)).

With `Cc1cn([C@H]2C[C@H](N=[N+]=[N-])[C@@H](COP(=O)(O)O)O2)c(=O)[nH]c1=O` [AZTMP, reference compound], the “Plasma (Citrate) t 1/2” value in “in vitro [4]” (citrate-stabilized human plasma, 37 °C) came to 4.5 h. Also, the “Plasma (Heparin) t 1/2” value in “in vitro [4]” (heparin-stabilized human plasma, 37 °C) is reported as 2.0 h. Also, in “in vitro [4]” (human plasma 37 °C, heparin and citrate taken together), the “t 1/2 in human plasma (over heparin and citrate plasma)” value was 2.0 to 4.5 h.

With `CCCCCCCCCCCCCCCCCCOP(=O)(OCC(CC)CCCC)OP(=O)(O)OP(=O)(O)OC[C@@H]1C=C[C@H](n2cnc3c(NC4CC4)nc(N)nc32)C1` (stereo partly drawn) [10hw], in series [1], the half-life at 1.9 mM was 181 h. In addition, the CC50 in the series “in vitro [3]” was more than 100 µM. For the same molecule, the values for the EC50 in the series with HIV‐2 [ROD)], in the series with HIV‐2 [ROD] and with HIV‐1 [HE] were 0.026 ± 0.035 µM, 0.18 ± 0.11 µM and 0.1 ± 0.03 µM, respectively.

As for `CCCCCCCCCCCCCCCCCCP(=O)(OCc1ccc(OC(=O)CCCC)cc1)OP(=O)(O)OP(=O)(O)OC[C@H]1O[C@@H](n2cc(C)c(=O)[nH]c2=O)C[C@@H]1F` (stereo partly drawn) [10ez], in series [1], the half-life at 1.9 mM was 51 h. For the same molecule, in the series “in vitro [3]”, the CC50 came out at 45.3 ± 16.7 µM. Besides, the values for the EC50 in the series on HIV‐2 [ROD)], with HIV‐2 [ROD] and with HIV‐1 [HE] were 1.83 ± 1.65 µM, 0.46 ± 0.4 µM and 0.46 ± 0.36 µM, respectively.

With `CCCCCCCCCCCCCCCCCCOP(=O)(OCC(CC)CCCC)OP(=O)(O)OP(=O)(O)OC[C@H]1O[C@@H](n2cc(/C=C/Br)c(=O)[nH]c2=O)C[C@@H]1O` (stereo partly drawn) [10gw], the half-life at 1.9 mM in series [1] is more than 2000 h. Further, the midpoint of cytotoxicity in the series “in vitro [3]”, the CC50, lay at 60.3 ± 20.7 µM. Further, the values for the EC50 with HIV‐2 [ROD)], in the series with HIV‐2 [ROD] and in the series with HIV‐1 [HE] were 11.3 ± 4.24 µM, 4.21 ± 0.37 µM and more than 10 µM, respectively.

Take `CCCCCCCCCCCCCCCCCCOP(=O)(OCC(CC)CCCC)OP(=O)(O)OP(=O)(O)OC[C@H]1O[C@@H](n2cc(C)c(=O)[nH]c2=O)C[C@@H]1F` (stereo partly drawn) [10ew]: the half-life at 1.9 mM in series [1] was more than 2000 h. Moreover, in “in vitro [3]”, the CC50 was 52.6 ± 10.9 µM. Further, the EC50 in the series with HIV‐2 [ROD)] is 0.28 ± 0.12 µM; in the series with HIV‐2 [ROD], 0.86 ± 0.19 µM; in the series on HIV‐1 [HE], 1.5 ± 1.39 µM.
